This series in a line: Dissolution testing of medicated tablets, USP/NF method 711, apparatus 2 at 50 RPM, UV absorption. The settings on record: medicated steam extruded starch solid dosage form, apparatus 2, 50 RPM. The series is classed as physicochemical. As to the method: Dosage form dissolution is measured by the United States Pharmacopeia/National Formulary (USP/NF) method 711 (United States Pharmacopeia, Rockville, Md., USA) and is summarized below:
The assembly from Apparatus 1 is used except that a paddle formed from a blade and a shaft is used as the stirring element. The shaft is positioned so that its axis is not more than 2 mm at any point from the vertical axis of the vessel and rotates smoothly without significant wobble. The vertical center line of the blade passes through the axis of the shaft so that the bottom of the blade is flush with the bottom of the shaft. The distance of 25±2 mm between the blade and the inside bottom of the vessel is maintained during the test. The metallic or suitably inert, rigid blade and shaft comprise a single entity that may be coated with a suitable inert coating. The dosage unit is allowed to sink to the bottom of the vessel before rotation of the blade is started. A small, loose piece of nonreactive material such as not more than a few turns of wire helix may be attached to dosage units that would otherwise float. Other validated sinker devices may be used. […]
The stated volume of the dissolution medium (±1%) is placed in the vessel of the apparatus. The dissolution medium is equilibrated to 37±0.5°C., and the thermometer removed. One solid dosage form is placed in the apparatus, taking care to exclude air bubbles from the surface of the dosage-form unit and either apparatus is immediately operated at a rate of 50 rpm. The concentration of dissolved drug in dissolution medium is measured over time by ultraviolet spectrophotometer to calculate the dissolution rate.
The medicated tablets were dissolved according to USP/NF method 711 using apparatus 2 at 50 RPM. Levels of medicament released were determined by UV absorption.

Setting [1] is: dissolution media Simulated Intestinal Fluid without enzyme.
Where [2] appears, read: dissolution media deionized H2O, 37 C.

Under setting [1], `CC(C(=O)O)c1ccc2c(c1)[nH]c1ccc(Cl)cc12` (stereo not shown) [Carprofen] showed a 1 minute release of 33.4%, a 5 minute release of 69.6%, a 10 minute release of 82.8% and a 60 minute release of 101.4%.
Regarding `Cl.Cl.O=C(O)COCCN1CCN(C(c2ccccc2)c2ccc(Cl)cc2)CC1` (stereo not shown) [Cetirizine.HCl], under setting [2], the 1 minute release is 65.5%, the 5 minute release is recorded as 82.7% and the 60 minute release is listed as 100.1%.
Taken in the same sequence, the figures for `OC(Cn1cncn1)(Cn1cncn1)c1ccc(F)cc1F` [Diflucan, Fluconazole] were 60.3%, 76.7% and 97.6%.

Source of the values: patent US6497899B2, “Rapidly disintegrating and fast-dissolving solid dosage form” (Pfizer, Inc., priority 2000, dated 2002).
